Experimental findings from ChEMBL document CHEMBL3045941, “-Methyl as a bioisostere for the oxygen link between the aromatic rings of aryloxyphenoxypropionate herbicides” (Bioorg Med Chem Lett, 1997) are described below.

Calls of active or inactive are those of the source. No cut-off for these calls is given here.

Data set [1] concerns Triticum aestivum. The data set is described as follows: Phytotoxicity against Triticum aestivum (wheat) at two to four-leaf growth stage at 5 g/ha measured after 13 days under green house conditions. It counts as organism-based. The note with it: in vivo, 312 h.
Data set [2] deals with Oryza sativa. In words: Phytotoxicity against Oryza sativa (rice) plant at two to four-leaf growth stage at 5 g/ha measured after 13 days under green house conditions. The note with it: in vivo, 312 h. It counts as organism-based.
For data set [3], the system named is Sorghum halepense. The data set is described as follows: Post-emergent herbicidal activity against Sorghum halepense (Johnson grass) at 50 g/ha measured after 13 days under green house conditions. It counts as functional.
Data set [4] relates to Setaria viridis. In words: Post-emergent herbicidal activity against Setaria viridis (green foxtail) at 50 g/ha measured after 13 days under green house conditions. It counts as functional.
The test system of data set [5] is Sorghum halepense. The data set is described as follows: Post-emergent herbicidal activity against Sorghum halepense (Johnson grass) at <2 g/ha measured after 13 days under green house conditions. It counts as functional, organism-based.
Data set [6] concerns Oryza sativa. The data set is described as follows: Phytotoxicity against Oryza sativa (rice) plant at two to four-leaf growth stage at <2 g/ha measured after 13 days under green house conditions. It counts as organism-based. To be noted: in vivo, 312 h.
For data set [7], the system named is Zea mays. The data set is described as follows: Phytotoxicity against Zea mays (maize) plant at two to four-leaf growth stage at 50 g/ha measured after 13 days under green house conditions. It counts as organism-based. The note with it: in vivo, 312 h.
The subject of data set [8] is Avena fatua. In words: Post-emergent herbicidal activity against Avena fatua at 50 g/ha measured after 13 days under green house conditions. It counts as functional.
For data set [9], the system named is Avena fatua. In words: Post-emergent herbicidal activity against Avena fatua at 5 g/ha measured after 13 days under green house conditions. It counts as functional.
Data set [10] deals with Sorghum halepense. In words: Post-emergent herbicidal activity against Sorghum halepense (Johnson grass) at 5 g/ha measured after 13 days under green house conditions. It counts as functional.
For data set [11], the system named is Avena fatua. In words: Post-emergent herbicidal activity against Avena fatua at <2 g/ha measured after 13 days under green house conditions. It counts as functional, organism-based.
Data set [12] concerns Zea mays. In words: Phytotoxicity against Zea mays (maize) plant at two to four-leaf growth stage at <2 g/ha measured after 13 days under green house conditions. It counts as organism-based. To be noted: in vivo, 312 h.
The subject of data set [13] is Zea mays. In words: Phytotoxicity against Zea mays (maize) plant at two to four-leaf growth stage at 5 g/ha measured after 13 days under green house conditions. It counts as organism-based. To be noted: in vivo, 312 h.
Data set [14] relates to Setaria viridis. In words: Post-emergent herbicidal activity against Setaria viridis (green foxtail) at <2 g/ha measured after 13 days under green house conditions. It counts as functional, organism-based.
In data set [15] the test system is Echinochloa crus-galli. The data set is described as follows: Post-emergent herbicidal activity against Echinochloa crus-galli (barnyard grass) at <2 g/ha measured after 13 days under green house conditions. It counts as functional, organism-based.
Data set [16] has as its system Triticum aestivum. In words: Phytotoxicity against Triticum aestivum (wheat) at two to four-leaf growth stage at <2 g/ha measured after 13 days under green house conditions. It counts as organism-based. To be noted: in vivo, 312 h.
The subject of data set [17] is Echinochloa crus-galli. The data set is described as follows: Post-emergent herbicidal activity against Echinochloa crus-galli (barnyard grass) at 5 g/ha measured after 13 days under green house conditions. It counts as functional.
Data set [18] concerns Oryza sativa. The data set is described as follows: Phytotoxicity against Oryza sativa (rice) plant at two to four-leaf growth stage at 50 g/ha measured after 13 days under green house conditions. It counts as organism-based. The note with it: in vivo, 312 h.
Data set [19] deals with Triticum aestivum. In words: Phytotoxicity against Triticum aestivum (wheat) at two to four-leaf growth stage at 50 g/ha measured after 13 days under green house conditions. It counts as organism-based. To be noted: in vivo, 312 h.
Data set [20] has as its system Setaria viridis. The data set is described as follows: Post-emergent herbicidal activity against Setaria viridis (green foxtail) at 5 g/ha measured after 13 days under green house conditions. It counts as functional.
Data set [21] has as its system Echinochloa crus-galli. The data set is described as follows: Post-emergent herbicidal activity against Echinochloa crus-galli (barnyard grass) at 50 g/ha measured after 13 days under green house conditions. It counts as functional.
Data set [22] deals with Avena fatua. The data set is described as follows: Post-emergent herbicidal activity against Avena fatua at 12.5 g/ha measured after 13 days under green house conditions. It counts as functional.
In data set [23] the test system is Oryza sativa. The data set is described as follows: Phytotoxicity against Oryza sativa (rice) plant at two to four-leaf growth stage at 12.5 g/ha measured after 13 days under green house conditions. It counts as organism-based. To be noted: in vivo, 312 h.
Data set [24] has as its system Zea mays. In words: Phytotoxicity against Zea mays (maize) plant at two to four-leaf growth stage at 12.5 g/ha measured after 13 days under green house conditions. It counts as organism-based. The note with it: in vivo, 312 h.
Data set [25] concerns Triticum aestivum. The data set is described as follows: Phytotoxicity against Triticum aestivum (wheat) at two to four-leaf growth stage at 12.5 g/ha measured after 13 days under green house conditions. To be noted: in vivo, 312 h. It counts as organism-based.
The test system of data set [26] is Echinochloa crus-galli. The data set is described as follows: Post-emergent herbicidal activity against Echinochloa crus-galli (barnyard grass) at 12.5 g/ha measured after 13 days under green house conditions. It counts as functional.
For data set [27], the system named is Setaria viridis. In words: Post-emergent herbicidal activity against Setaria viridis (green foxtail) at 12.5 g/ha measured after 13 days under green house conditions. It counts as functional.
Data set [28] deals with Acetyl-CoA carboxylase (Hordeum vulgare) (UniProt Q3V4F7+Q3V4I7+Q947J4+Q947J5+Q40010+Q5S741+Q5S747). In words: Inhibition of acetyl-CoA carboxylase in Hordeum vulgare (barley) leaves. It counts as protein assay.
Data set [29] concerns Sorghum halepense. The data set is described as follows: Post-emergent herbicidal activity against Sorghum halepense (Johnson grass) at 12.5 g/ha measured after 13 days under green house conditions. It counts as functional.
Data set [30] deals with Avena fatua. In words: Post-emergent herbicidal activity against Avena fatua at 100 g/ha measured after 13 days under green house conditions. It counts as functional.
For data set [31], the system named is Zea mays. The data set is described as follows: Phytotoxicity against Zea mays (maize) plant at two to four-leaf growth stage at 100 g/ha measured after 13 days under green house conditions. To be noted: in vivo, 312 h. It counts as organism-based.
The subject of data set [32] is Setaria viridis. The data set is described as follows: Post-emergent herbicidal activity against Setaria viridis (green foxtail) at 100 g/ha measured after 13 days under green house conditions. It counts as functional.
The subject of data set [33] is Sorghum halepense. The data set is described as follows: Post-emergent herbicidal activity against Sorghum halepense (Johnson grass) at 100 g/ha measured after 13 days under green house conditions. It counts as functional.
For data set [34], the system named is Triticum aestivum. In words: Phytotoxicity against Triticum aestivum (wheat) at two to four-leaf growth stage at 100 g/ha measured after 13 days under green house conditions. To be noted: in vivo, 312 h. It counts as organism-based.
For data set [35], the system named is Echinochloa crus-galli. In words: Post-emergent herbicidal activity against Echinochloa crus-galli (barnyard grass) at 100 g/ha measured after 13 days under green house conditions. It counts as functional.
The subject of data set [36] is Oryza sativa. The data set is described as follows: Phytotoxicity against Oryza sativa (rice) plant at two to four-leaf growth stage at 100 g/ha measured after 13 days under green house conditions. To be noted: in vivo, 312 h. It counts as organism-based.
The subject of data set [37] is Oryza sativa. The data set is described as follows: Phytotoxicity against Oryza sativa (rice) plant at two to four-leaf growth stage at 250 g/ha measured after 13 days under green house conditions. It counts as organism-based. The note with it: in vivo, 312 h.
The subject of data set [38] is Echinochloa crus-galli. In words: Post-emergent herbicidal activity against Echinochloa crus-galli (barnyard grass) at 250 g/ha measured after 13 days under green house conditions. It counts as functional.
The subject of data set [39] is Avena fatua. The data set is described as follows: Post-emergent herbicidal activity against Avena fatua at 250 g/ha measured after 13 days under green house conditions. It counts as functional.
The test system of data set [40] is Triticum aestivum. In words: Phytotoxicity against Triticum aestivum (wheat) at two to four-leaf growth stage at 250 g/ha measured after 13 days under green house conditions. It counts as organism-based. The note with it: in vivo, 312 h.
Data set [41] deals with Zea mays. In words: Phytotoxicity against Zea mays (maize) plant at two to four-leaf growth stage at 250 g/ha measured after 13 days under green house conditions. It counts as organism-based. The note with it: in vivo, 312 h.
Data set [42] concerns Setaria viridis. In words: Post-emergent herbicidal activity against Setaria viridis (green foxtail) at 250 g/ha measured after 13 days under green house conditions. It counts as functional.
In data set [43] the test system is Sorghum halepense. The data set is described as follows: Post-emergent herbicidal activity against Sorghum halepense (Johnson grass) at 250 g/ha measured after 13 days under green house conditions. It counts as functional.

With `COC(=O)C(C)Oc1ccc(N(C)c2nnc3cc(Cl)ccc3n2)cc1` (racemic), the Activity in [1] was 70%; in [2], 0%; in data set [3] it was 100%; in data set [4], 100%; in data set [6] it was “Non-toxic”; in data set [7] it was 85%. Also, the Activity is 85% in data set [8]; 50% in data set [9]; 50% in data set [10]; “Non-toxic” in data set [12]; 70% in [13]; “Non-toxic” in data set [16]. In addition, the Activity came to 0% in [17]; 85% in data set [18]; 85% in [19]; 100% in [20]; 100% in [21]. Also, the outcome in [5], in data set [11], in [14] and in [15] was inactive.

Consider `CCOC(=O)C(C)Oc1ccc(N(C)c2ncc3cc(Cl)ccc3n2)cc1` (racemic), for which the Activity in data set [22] is reported as 0%; in data set [23] it was 0%; in data set [3], 98%; in data set [4] it was 98%; in data set [6], “Non-toxic”; in data set [24] it was 15%. The Activity in data set [7] is 65%; in data set [25] it was 35%; in data set [8] it was 15%; in data set [12], “Non-toxic”; in data set [26], 98%; in data set [27], 65%. Also, the Activity in data set [28] is 1.5 µM; in data set [16] it was “Non-toxic”; in [18], 35%; in [19] it was 65%; in data set [29], 65%; in data set [21] it was 85%. The outcome in [5], in data set [11], in data set [14] and in [15] was inactive.

Regarding `CCOC(=O)C(C)Oc1ccc(N(C)c2nc3ccccc3o2)cc1` (racemic), the result in data set [5], in data set [11], in data set [14] and in data set [15] was inactive. Also, the Activity entry in data set [6] is recorded as “Non-toxic”; in [30], 70%; in data set [31], 100%; in [32], 85%; in data set [12], “Non-toxic”; in data set [33], 100%. Moreover, the Activity in data set [34] is on record as 85%; in [16], “Non-toxic”; in data set [35], 100%; in data set [36], 30%.

Turning to `CCOC(=O)C(C)Oc1ccc(Oc2ncc(Cl)cn2)cc1` (racemic), the Activity in data set [37] is recorded as 70%; in data set [38], 85%; in [39] it was 85%; in [6] it was “Non-toxic”; in data set [40] it was 70%; in data set [41], 85%. In addition, the Activity entry in data set [12] is given as “Non-toxic”; in [42], 85%; in data set [16], “Non-toxic”; in [43] it was 85%. For the same compound, the result in data set [5], in data set [11], in data set [14] and in data set [15] was inactive.

As for `COC(=O)C(C)Oc1ccc(N(C)c2ncc(Cl)cn2)cc1` (racemic), the Activity in [37] is listed as 70%; in data set [38] it was 100%; in data set [39], 85%; in data set [6], “Non-toxic”; in data set [40] it was 85%; in data set [41] it was 85%. Moreover, the Activity entry in data set [12] is on record as “Non-toxic”; in data set [42] it was 85%; in data set [16] it was “Non-toxic”; in data set [43] it was 85%. The result in [5], in data set [11], in data set [14] and in data set [15] was inactive.

With `CCOC(=O)C(C)Oc1ccc(Oc2cnc3cc(Cl)ccc3n2)cc1` (racemic) [QUIZALOFOP ETHYL ESTER], the Activity in data set [1] is recorded as 85%; in data set [2] it was 50%; in data set [3] it was 100%; in data set [4], 100%; in [6] it was “Non-toxic”; in data set [7], 100%. The Activity is 85% in data set [8]; 30% in data set [9]; 85% in data set [10]; “Non-toxic” in data set [12]; 85% in data set [13]; “Non-toxic” in [16]. The Activity in data set [17] is given as 70%; in data set [18], 70%; in [19] it was 85%; in data set [20] it was 70%; in data set [21] it was 100%. The outcome in data set [5], in data set [11], in data set [14] and in data set [15] was inactive.
